Assay results as given in US20260374754A1, “N-((ISOQUINOLIN-6-YL)METHYL)-1H-PYRAZOLE-4-CARBOXAMIDE DERIVATIVES AS PLASMA KALLIKREIN INHIBITORS FOR THE TREATMENT OF HEREDITARY ANGIODEMA” (Takeda Pharmaceutical Company Limited, priority 2022, published 2026).
Where a name gives a salt, the structure may show the parent alone.

Columns and labels:
plasma kallikrein = molecular target: T1, plasma kallikrein (Homo sapiens, UniProt P03952); test: Neat Human Plasma Assay (Fluorogenic Peptide), contact pathway-activated (FXIIa) plasma; format: biochemical; settings: human citrated plasma 78% final; 10 nM human FXIIa; PFR-AMC substrate; 5 minutes; room temperature
T1 construct: PFR-AMC substrate
Description: To analyze inhibition of plasma kallikrein in an ex vivo setting, the potency of compounds was measure in contact pathway-activated plasma assays. In a fluorogenic peptide substrate assay, test compounds dissolved in DMSO were added to sodium citrate collected human or rat plasma in a 96-well microplate. Alternatively, citrated plasma was collected from rats administered the compounds orally or by IV. 10 nM of human FXIIa (Enzyme Research Laboratories) diluted in PKa buffer (20 mM Tris-HCl, pH 7.5, 150 mM NaCl, 1 mM EDTA, 0.1% PEG-8000, and 0.1% Triton X-100) was added to the plasma, followed by the […] of the profluorescent, synthetic plasma kallikrein substrate PFR-AMC (also diluted in PKa buffer). Final plasma concentration in the reaction was 78%. Fluorescence was immediately monitored by excitation/emission wavelengths of 360 nm/480 nm respectively over a period of 5 minutes in a microplate reader. The resulting linear increase in fluorescence emission (reflecting PKa proteolysis of PFR-AMC substrate) was fit to extract a proteolytic rate (fluorescent units over time), and this rate was subsequently plotted against compound inhibitor concentration. Resulting plots were fit to a standard 4-parameter IC50/IC90 equation to determine min/max values, IC50/90, and slope. All experimental steps were performed at room temperature.

[1] = molecular target: human activated kallikrein enzyme (Homo sapiens, UniProt P03952); test: Inhibition of human activated plasma kallikrein, fluorogenic PFR-AMC substrate, 500 pM enzyme format; format: biochemical; settings: 500 pM activated kallikrein; 300 μM PFR-AMC; 30 min preincubation; 10 min room temperature; pH 7.5; read-out: Primary Dose Response Assay: Average EC50
Summary of the method: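 500 pM activated kallikrein preincubated 30 min at room temperature with inhibitors in pH 7.5 Tris/EDTA/NaCl buffer with PEG-400 and Triton X-100. Reaction started with 300 μM PFR-AMC, run 10 min at room temperature; AMC fluorescence read at ex 380/em 460 nm.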

Chain of human activated kallikrein enzyme (P03952 391-638 limits assumed): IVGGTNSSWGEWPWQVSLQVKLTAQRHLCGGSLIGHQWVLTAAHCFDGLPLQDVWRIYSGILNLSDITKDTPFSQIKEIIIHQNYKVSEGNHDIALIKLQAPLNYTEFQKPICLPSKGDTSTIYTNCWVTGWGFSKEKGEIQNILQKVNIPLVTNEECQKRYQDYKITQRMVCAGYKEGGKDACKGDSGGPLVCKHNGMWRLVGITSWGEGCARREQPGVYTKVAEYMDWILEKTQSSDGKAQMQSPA
Chain of human activated kallikrein enzyme (P03952 20-390 partner limits assumed): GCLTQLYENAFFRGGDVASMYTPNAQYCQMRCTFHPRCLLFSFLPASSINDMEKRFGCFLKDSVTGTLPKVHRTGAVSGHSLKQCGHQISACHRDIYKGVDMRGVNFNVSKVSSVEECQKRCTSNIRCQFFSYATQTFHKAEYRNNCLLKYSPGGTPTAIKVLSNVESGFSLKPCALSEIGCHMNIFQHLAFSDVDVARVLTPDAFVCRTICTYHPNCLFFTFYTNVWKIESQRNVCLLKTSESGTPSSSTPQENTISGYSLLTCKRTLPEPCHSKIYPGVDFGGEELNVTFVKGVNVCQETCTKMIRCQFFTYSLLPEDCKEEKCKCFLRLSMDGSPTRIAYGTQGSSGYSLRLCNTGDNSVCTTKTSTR
T1 sequence (P03952 20-638): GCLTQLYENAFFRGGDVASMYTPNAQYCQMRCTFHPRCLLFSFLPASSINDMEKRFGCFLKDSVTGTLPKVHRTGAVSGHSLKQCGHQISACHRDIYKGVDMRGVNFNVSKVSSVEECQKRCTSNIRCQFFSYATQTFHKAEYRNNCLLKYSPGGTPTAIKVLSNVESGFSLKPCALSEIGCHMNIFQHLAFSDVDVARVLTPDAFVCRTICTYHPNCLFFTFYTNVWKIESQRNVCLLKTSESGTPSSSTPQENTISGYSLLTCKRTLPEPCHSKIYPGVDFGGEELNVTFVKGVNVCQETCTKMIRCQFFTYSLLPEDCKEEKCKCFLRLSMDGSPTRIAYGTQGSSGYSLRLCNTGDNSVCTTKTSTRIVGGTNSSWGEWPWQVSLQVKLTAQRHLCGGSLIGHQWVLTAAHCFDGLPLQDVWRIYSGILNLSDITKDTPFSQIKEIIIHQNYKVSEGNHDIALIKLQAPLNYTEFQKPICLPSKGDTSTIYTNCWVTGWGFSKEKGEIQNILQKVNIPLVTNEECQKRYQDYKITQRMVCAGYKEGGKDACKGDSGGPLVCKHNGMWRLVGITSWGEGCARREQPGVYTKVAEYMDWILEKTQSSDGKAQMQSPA

Row | Structure (SMILES) | IC90 (plasma kallikrein) | EC50 [1]
1 | Cc1cc2c(N)nccc2c(C)c1CNc1cc(NCc2cn3cc(Cl)ccc3n2)ncn1 [Example 313, N^4-((1-amino-5,7-dimethylisoquinolin-6-yl)methyl)-N^6-((6-chloroimidazo[1,2-a]pyridin-2-yl)methyl)pyrimidine-4,6-diamine, formic acid salt] | > 5 µM | < 0.001 µM
2 | Cc1cc2c(N)nccc2c(C)c1CNc1cc(NCc2cn3cc(C4CC4)ccc3n2)ncn1 [Example 331, N^4-((1-amino-5,7-dimethylisoquinolin-6-yl)methyl)-N^6-((6-cyclopropylimidazo[1,2-a]pyridin-2-yl)methyl)pyrimidine-4,6-diamine] | 1 to 5 µM | < 0.001 µM
3 | Cc1cc2c(N)nccc2c(C)c1CNc1cc(NCc2ccc(Cn3cccn3)cc2)ncn1 [Example 340, N^4-(4-((1H-pyrazol-1-yl)methyl)benzyl)-N^6-((1-amino-5,7-dimethylisoquinolin-6-yl)methyl)pyrimidine-4,6-diamine] | > 5 µM | < 0.001 µM
4 | Cc1cc2c(N)nccc2c(C)c1CNc1cc(OCc2ccc3ncc(C4CC4)cc3c2)ncn1 [Example 386, 6-(((6-((3-cyclopropylquinolin-6-yl)methoxy)pyrimidin-4-yl)amino)methyl)-5,7-dimethylisoquinolin-1-amine] | > 5 µM | 0.001 to 0.01 µM
5 | Cc1cc2c(N)nccc2c(C)c1CNc1cc(OCc2cnc3ccc(C4CC4)cc3c2)ncn1 [Example 387, 6-(((6-((6-cyclopropylquinolin-3-yl)methoxy)pyrimidin-4-yl)amino)methyl)-5,7-dimethylisoquinolin-1-amine] | > 5 µM | 0.001 to 0.01 µM
6 | Cc1cc2c(N)nccc2c(C)c1CNc1cc(OCc2nc3ccc(C4CC4)nn3n2)ncn1 [Example 391, 6-(((6-((6-cyclopropyl-[1,2,4]triazolo[1,5-b]pyridazin-2-yl)methoxy)pyrimidin-4-yl)amino)methyl)-5,7-dimethylisoquinolin-1-amine] | > 5 µM | 0.01 to 0.1 µM
7 | Cc1cc2c(N)nccc2c(C)c1CNc1nccc2nn(Cc3cn4cc(C5CC5)cnc4n3)cc12 [Example 392, 6-(((2-((6-cyclopropylimidazo[1,2-a]pyrimidin-2-yl)methyl)-2H-pyrazolo[4,3-c]pyridin-4-yl)amino)methyl)-5,7-dimethylisoquinolin-1-amine] | ≤ 1 µM | < 0.001 µM
8 | Cc1cc2c(N)nccc2c(C)c1CNc1cc(OCc2cc(C(N)=O)c3ncc(Cl)cc3c2)ncn1 [Example 401, 6-(((6-(((1-amino-5,7-dimethylisoquinolin-6-yl)methyl)amino)pyrimidin-4-yl)oxy)methyl)-3-chloroquinoline-8-carboxamide] | 1 to 5 µM | 0.001 to 0.01 µM
9 | Cc1cc2c(N)nccc2c(C)c1CNc1cc(NCc2ccc(Cn3cccn3)cc2)c(C(F)(F)F)nn1 [Example 451, N^5-(4-((1H-pyrazol-1-yl)methyl)benzyl)-N^3-((1-amino-5,7-dimethylisoquinolin-6-yl)methyl)-6-(trifluoromethyl)pyridazine-3,5-diamine] | 1 to 5 µM | < 0.001 µM
10 | Cc1cc2c(N)nccc2c(C)c1CNc1nccn2nc(Cc3cn4cc(C5CC5)ccc4n3)nc12 [Example 498, 6-(((2-((6-cyclopropylimidazo[1,2-a]pyridin-2-yl)methyl)-[1,2,4]triazolo[1,5-a]pyrazin-8-yl)amino)methyl)-5,7-dimethylisoquinolin-1-amine] | 1 to 5 µM | 0.001 to 0.01 µM
11 | Cc1cc2c(N)nccc2c(C)c1CNc1cc2c(cn1)ncn2Cc1cn2cc(C3CC3)ccc2n1 [Example 499, 6-(((1-((6-cyclopropylimidazo[1,2-a]pyridin-2-yl)methyl)-1H-imidazo[4,5-c]pyridin-6-yl)amino)methyl)-5,7-dimethylisoquinolin-1-amine] | ≤ 1 µM | < 0.001 µM

Continued, values first:

Row | IC90 (plasma kallikrein) | EC50 [1] | Structure (SMILES)
12 | > 5 µM | < 0.001 µM | Cc1cc2c(N)nccc2c(C)c1CNc1cc(OCc2cn3cc(C4CC4)ccc3n2)ncn1 [Example 305, 6-(((6-((6-cyclopropylimidazo[1,2-a]pyridin-2-yl)methoxy)pyrimidin-4-yl)amino)methyl)-5,7-dimethylisoquinolin-1-amine]
13 | 1 to 5 µM | < 0.001 µM | Cc1cc2c(N)nccc2c(C)c1CNc1cc(NCc2ccc3ncc(C4CC4)cc3c2)ncn1 [Example 314, N^4-((1-amino-5,7-dimethylisoquinolin-6-yl)methyl)-N^6-((3-cyclopropylquinolin-6-yl)methyl)pyrimidine-4,6-diamine]
14 | 1 to 5 µM | 0.001 to 0.01 µM | Cc1ccc2cc(COc3cc(NCc4c(C)cc5c(N)nccc5c4C)ncn3)ccc2n1 [Example 371, 5,7-dimethyl-6-(((6-((2-methylquinolin-6-yl)methoxy)pyrimidin-4-yl)amino)methyl)isoquinolin-1-amine]
15 | > 5 µM | 0.001 to 0.01 µM | Cc1cc2c(N)nccc2c(C)c1CNc1cc(OCc2ccc3ncc(Cl)cc3c2)ncn1 [Example 373, 6-(((6-((3-chloroquinolin-6-yl)methoxy)pyrimidin-4-yl)amino)methyl)-5,7-dimethylisoquinolin-1-amine formic acid salt]
16 | 1 to 5 µM | 0.001 to 0.01 µM | Cc1cc2c(N)nccc2c(C)c1CNc1cc(OCc2nc3ncc(C4CC4)cn3n2)ncn1 [Example 384, 6-(((6-((6-cyclopropyl-[1,2,4]triazolo[1,5-a]pyrimidin-2-yl)methoxy)pyrimidin-4-yl)amino)methyl)-5,7-dimethylisoquinolin-1-amine]
17 | > 5 µM | 0.001 to 0.01 µM | Cc1cc2c(N)nccc2c(C)c1CNc1cc(OCc2nc3ccc(C4CC4)cn3n2)ncn1 [Example 388, 6-(((6-((6-cyclopropyl-[1,2,4]triazolo[1,5-a]pyridin-2-yl)methoxy)pyrimidin-4-yl)amino)methyl)-5,7-dimethylisoquinolin-1-amine]
18 | > 5 µM | < 0.001 µM | Cc1c(CNc2cc(OCc3cn4cc(C5CC5)ccc4n3)ncn2)c(C2(C)CC2)cc2c(N)nccc12 [Example 390, 6-(((6-((6-cyclopropylimidazo[1,2-a]pyridin-2-yl)methoxy)pyrimidin-4-yl)amino)methyl)-5-methyl-7-(1-methylcyclopropyl)isoquinolin-1-amine]
19 | > 5 µM | 0.001 to 0.01 µM | Cc1cc2c(N)nccc2c(C)c1CNc1cc(OCc2cc(C#N)c3ncc(Cl)cc3c2)ncn1 [Example 398, 6-(((6-(((1-amino-5,7-dimethylisoquinolin-6-yl)methyl)amino)pyrimidin-4-yl)oxy)methyl)-3-chloroquinoline-8-carbonitrile]
20 | > 5 µM | 0.001 to 0.01 µM | Cc1cc2c(N)nccc2c(C)c1CNc1cc(OCc2cc3cc(C4CC4)ccn3n2)ncn1 [Example 400, 6-(((6-((5-cyclopropylpyrazolo[1,5-a]pyridin-2-yl)methoxy)pyrimidin-4-yl)amino)methyl)-5,7-dimethylisoquinolin-1-amine]
21 | 1 to 5 µM | < 0.001 µM | Cc1cc2c(N)nccc2c(C)c1CNc1cc(Cc2cn3cc(C4CC4)ccc3n2)ncn1 [Example 403, 6-(((6-((6-cyclopropylimidazo[1,2-a]pyridin-2-yl)methyl)pyrimidin-4-yl)amino)methyl)-5,7-dimethylisoquinolin-1-amine]
22 | 1 to 5 µM | < 0.001 µM | Cc1cnc2ccc(COc3cnnc(NCc4c(C)cc5c(N)nccc5c4C)c3)cc2c1 [Example 416, 5,7-dimethyl-6-(((5-((3-methylquinolin-6-yl)methoxy)pyridazin-3-yl)amino)methyl)isoquinolin-1-amine]
23 | 1 to 5 µM | < 0.001 µM | Cc1cc2c(N)nccc2c(C)c1CNc1cc(OCc2ccc3ncc(C4CC4)cc3c2)cnn1 [Example 422, 6-(((5-((3-cyclopropylquinolin-6-yl)methoxy)pyridazin-3-yl)amino)methyl)-5,7-dimethylisoquinolin-1-amine]
24 | 1 to 5 µM | < 0.001 µM | Cc1cc2c(N)nccc2c(C)c1CNc1cc(OCc2cn3cc(C4CC4)ccc3n2)cnn1 [Example 426, 6-(((5-((6-cyclopropylimidazo[1,2-a]pyridin-2-yl)methoxy)pyridazin-3-yl)amino)methyl)-5,7-dimethylisoquinolin-1-amine, formic acid salt]
25 | 1 to 5 µM | < 0.001 µM | Cc1cc2c(N)nccc2c(C)c1CNc1cc(OCc2ccc(Cn3cccn3)cc2)cnn1 [Example 432, 6-(((5-((4-((1H-pyrazol-1-yl)methyl)benzyl)oxy)pyridazin-3-yl)amino)methyl)-5,7-dimethylisoquinolin-1-amine]
26 | > 5 µM | < 0.001 µM | Cc1cc2c(N)nccc2c(C)c1CNc1nccc2nc(Cc3cn4cc(C5CC5)ccc4n3)[nH]c12 [Example 500, 6-(((2-((6-cyclopropylimidazo[1,2-a]pyridin-2-yl)methyl)-3H-imidazo[4,5-c]pyridin-4-yl)amino)methyl)-5,7-dimethylisoquinolin-1-amine]
